Data: US6448442B1, “Contrast media” (Amersham Health AS, priority 1999, dated 2002)
Several values for one entry are separate records, joined by “and”; a condition that tells them apart may be missing. Equal values may be shown once.

Experiment: Viscosity in aqueous solution at 20° C. (Example 82, Tables 1 and 2)
Format: physicochemical
Conditions: for Viscosity 350 mgI/ml (CALCULATED): calculated for 350 mgI/ml; for Viscosity at 400 mgI/ml (CALCULATED): calculated for 400 mgI/ml
Description: The viscosities in aqueous solution at 20° C. for some further compounds described above were determined and are listed in Table 2. […]

[1] = iodine concentration 394 mgI/mL

Q: For `O=C(NC(CO)C(O)CO)c1c(I)c(CO)c(I)c(N(CCO)C(=O)C(O)CO)c1I` (centres unmarked) [Example 39, 5-[N′-(2-Hydroxyethyl)-2,3-dihydroxypropionylamino]-3-hydroxymethyl-N-(1,3,4-trihydroxybut-2-yl)-2,4,6-triiodobenzamide], which “Viscosity 350 mgI/ml (CALCULATED)” value is on record?
A: 12.0 mPas

Q: And the “Viscosity at 400 mgI/ml (CALCULATED)” value?
A: 20.4 mPas

Q: And the “Viscosity 20° C.” value (concentration 372 mgI/ml)?
A: 15 mPas

Q: What about the Viscosity (iodine concentration 372 mgI/mL) of the same molecule?
A: 15 mPas

Q: For `O=C(NC(CO)C(O)CO)c1c(I)c(CO)c(I)c(N(CCO)C(=O)CO)c1I` (centres unmarked) [Example 35, 5-[N′-(2-Hydroxyethyl)-hydroxyacetamido]-3-hydroxymethyl-N-(1,3,4-trihydroxybut-2-yl)-2,4,6-triiodobenzamide], which “Viscosity 350 mgI/ml (CALCULATED)” value is on record?
A: 9.6 mPas

Q: And the “Viscosity at 400 mgI/ml (CALCULATED)” value?
A: 15.5 mPas

Q: What about the “Viscosity 20° C.” value (concentration 394 mgI/ml) of the same molecule?
A: 15 mPas

Q: What about the Viscosity [1] of the same molecule?
A: 15 mPas

Q: Which “Viscosity at 400 mgI/ml (CALCULATED)” value does the source give for `CC(O)C(=O)Nc1c(I)c(CO)c(I)c(C(=O)N(CC(O)CO)CC(O)CO)c1I` (centres unmarked) [Example 69, 5-(2-Hydroxypropionylamino)-3-hydroxymethyl-N,N-bis-(2,3-dihydroxypropyl)-2,4,6-triiodobenzamide] here?
A: 17.0 mPas

Q: What about the “Viscosity 20° C.” value (concentration 417 mgI/ml) of the same molecule?
A: 21 mPas

Q: For `O=C(c1c(I)c(CO)c(I)c(N(CCO)C(=O)CO)c1I)N(CCO)CCO` [Example 41, 5-[N′-(2-Hydroxyethyl)-hydroxyacetamido]-3-hydroxymethyl-N,N-bis(2-hydroxyethyl)-2,4,6-triiodobenzamide], which “Viscosity at 400 mgI/ml (CALCULATED)” value is on record?
A: 12.0 mPas

Q: And the “Viscosity 20° C.” value (concentration 508 mgI/ml)?
A: 40 mPas

Q: With `O=C(CO)Nc1c(I)c(CC(O)CO)c(I)c(N(CCO)C(=O)CO)c1I` (centres unmarked) [Example 72, 5-Hydroxyacetamido-3-[N-(2-hydroxyethyl)-hydroxyacetamido]-2,4,6-triiodo-(2,3-dihydroxypropyl)benzene] as the molecule, how does the “Viscosity 350 mgI/ml (CALCULATED)” value read?
A: 7.2 mPas

Q: What about the “Viscosity at 400 mgI/ml (CALCULATED)” value of the same molecule?
A: 11.0 mPas

Q: And the “Viscosity 20° C.” value (concentration 432 mgI/ml)?
A: 15 mPas

Q: Which results are given for `O=C(NC(CO)(CO)CO)c1c(I)c(CO)c(I)c(N(CCO)C(=O)CO)c1I` [Example 55, 5-[N′-(2-Hydroxyethyl)-hydroxyacetamido]-3-hydroxymethyl-N-[tris-(hydroxymethyl)-methyl]-2,4,6-triiodobenzamide]?
A: Viscosity at 400 mgI/ml (CALCULATED): 19.4 mPas; Viscosity 20° C. (concentration 429 mgI/ml): 28 mPas

Q: Which “Viscosity 350 mgI/ml (CALCULATED)” value does the source give for `O=C(CO)Nc1c(I)c(CC(O)CO)c(I)c(NC(=O)CO)c1I` (centres unmarked) [Example 71, 3,5-Bis-(Hydroxyacetamido)-2,4,6-triiodo-(2,3-dihydroxypropyl)benzene] here?
A: 6.0 mPas

Q: And the “Viscosity at 400 mgI/ml (CALCULATED)” value?
A: 8.8 mPas

Q: What about the “Viscosity 20° C.” value (concentration 455 mgI/ml) of the same molecule?
A: 14 mPas

Q: Which “Viscosity at 400 mgI/ml (CALCULATED)” value does the source give for `O=C(CO)Nc1c(I)c(CO)c(I)c(C(=O)N(CC(O)CO)CC(O)CO)c1I` (centres unmarked) [Example 67, 5-(hydroxyacetamido)-3-hydroxymethyl-N,N-bis-(2,3-dihydroxy-propyl)-2,4,6-triiodobenzamide] here?
A: 16.2 mPas

Q: And the “Viscosity 20° C.” value (concentration 407 mgI/ml)?
A: 18 mPas

Q: With `O=C(NC(CO)CO)c1c(I)c(CO)c(I)c(N(CCO)C(=O)CO)c1I` [Example 49, 5-[N′-(2-Hydroxyethyl)-hydroxyacetamido]-3-hydroxymethyl-N-(1,3-dihydroxyprop-2-yl)-2,4,6-triiodobenzamide] as the molecule, how does the “Viscosity at 400 mgI/ml (CALCULATED)” value read?
A: 13.2 mPas

Q: And the “Viscosity 20° C.” value (concentration 380 mgI/ml)?
A: 11 mPas

Q: What does the source list for `O=C(C(O)CO)N(CCO)c1c(I)c(CO)c(I)c(N(CCO)C(=O)C(O)CO)c1I` (centres unmarked) [Example 14, N,N′-Bis(2,3-dihydroxypropionyl)-N,N-bis(2-hydroxyethyl)-3,5-diamino-2,4,6-triiodobenzylalcohol]?
A: Viscosity at 400 mgI/ml (CALCULATED): 15.8 mPas; Viscosity 20° C. (concentration 373 mgI/ml): 12.0 mPas; Viscosity (iodine concentration 373 mgI/mL): 12 mPas

Q: For `CC(O)C(=O)N(CCO)c1c(I)c(CO)c(I)c(C(=O)NC(CO)C(O)CO)c1I` (centres unmarked) [Example 65, 5-[N′-(2-Hydroxyethyl)-2-hydroxypropionylamino]-3-hydroxymethyl-N-(1,3,4-trihydroxybut-2-yl)-2,4,6-triiodobenzamide], which “Viscosity 350 mgI/ml (CALCULATED)” value is on record?
A: 10.4 mPas

Q: What about the “Viscosity at 400 mgI/ml (CALCULATED)” value of the same molecule?
A: 17.8 mPas

Q: What about the “Viscosity 20° C.” value (concentration 413 mgI/ml) of the same molecule?
A: 21 mPas

Q: What does the source list for `CC(O)C(=O)Nc1c(I)c(CO)c(I)c(N(CC(O)CO)C(=O)C(C)O)c1I` (centres unmarked) [Example 11, N,N′-Bis(2-hydroxypropionyl)-N-(2,3-dihydroxypropyl)-3,5-diamino-2,4,6-triiodobenzylalcohol]?
A: Viscosity at 400 mgI/ml (CALCULATED): 15 mPas; Viscosity 20° C. (concentration 409 mgI/ml): 17 mPas; Viscosity (iodine concentration 407 mgI/mL): 16 mPas

Q: Which “Viscosity at 400 mgI/ml (CALCULATED)” value does the source give for `O=C(Nc1c(I)c(CO)c(I)c(C(=O)N(CCO)CCO)c1I)C(O)CO` (centres unmarked) [Example 42, 5-(2,3-Dihydroxypropionylamino)-3-hydroxymethyl-N,N-bis(2-hydroxyethyl)-2,4,6-triiodobenzamide] here?
A: 12.8 mPas

Q: And the “Viscosity 20° C.” value (concentration 488 mgI/ml)?
A: 34 mPas

Q: With `CN(CC(O)CO)C(=O)c1c(I)c(CO)c(I)c(NC(=O)C(O)CO)c1I` (centres unmarked) [Example 46] as the molecule, how does the “Viscosity at 400 mgI/ml (CALCULATED)” value read?
A: 16.4 mPas

Q: What about the “Viscosity 20° C.” value (concentration 474 mgI/ml) of the same molecule?
A: 41 mPas

Q: Which “Viscosity at 400 mgI/ml (CALCULATED)” value does the source give for `CC(O)C(=O)Nc1c(I)c(CO)c(I)c(NC(=O)C(C)O)c1I` (centres unmarked) [Example 8, N,N′-Bis(2-hydroxypropionyl)-3,5-diamino-2,4,6-triiodobenzylalcohol] here?
A: 11.0 mPas

Q: And the “Viscosity 20° C.” value (concentration 370 mgI/ml)?
A: 8.3 mPas

Q: What about the Viscosity (iodine concentration 370 mgI/mL) of the same molecule?
A: 8.3 mPas

Q: Which “Viscosity at 400 mgI/ml (CALCULATED)” value does the source give for `O=C(NCCO)c1c(I)c(CO)c(I)c(NC(=O)C(O)CO)c1I` (centres unmarked) [Example 52, 5-(2,3-Dihydroxypropionylamino)-3-hydroxymethyl-N-(2-hydroxyethyl)-2,4,6-triiodobenzamide] here?
A: 9.8 mPas

Q: And the “Viscosity 20° C.” value (concentration 514 mgI/ml)?
A: 29 mPas

Q: What does the source list for `O=C(NCC(O)CO)c1c(I)c(CO)c(I)c(N(CC(O)CO)C(=O)CO)c1I` (centres unmarked) [Example 26, 5-[N′-(2,3-Dihydroxypropyl)-hydroxyacetamido]-3-hydroxymethyl-N-(2,3-dihydroxypropyl)-2,4,6-triiodobenzamide]?
A: Viscosity 350 mgI/ml (CALCULATED): 9.4 mPas; Viscosity at 400 mgI/ml (CALCULATED): 15.1 mPas; Viscosity 20° C. (concentration 385 mgI/ml): 13 mPas; Viscosity (iodine concentration 385 mgI/mL): 13 mPas

Q: Which results are given for `O=C(c1c(I)c(CO)c(I)c(N(CCO)C(=O)C(O)CO)c1I)N(CCO)CCO` (centres unmarked) [Example 43, 5-[N′-(2-Hydroxyethyl)-2,3-dihydroxypropionylamino]-3-hydroxy-methyl-N,N-bis (2-hydroxyethyl)-2,4,6-triiodobenzamide]?
A: Viscosity at 400 mgI/ml (CALCULATED): 14.2 mPas; Viscosity 20° C. (concentration 488 mgI/ml): 42 mPas

Q: Which results are given for `CN(CC(O)CO)C(=O)c1c(I)c(CO)c(I)c(N(CCO)C(=O)CO)c1I` (centres unmarked) [Example 45, 5-[N′-(2-Hydroxyethyl)-hydroxyacetamido]-3-hydroxymethyl-N-methyl-N-(2,3-dihydroxypropyl)-2,4,6-triiodobenzamide]?
A: Viscosity at 400 mgI/ml (CALCULATED): 13.9 mPas; Viscosity 20° C. (concentration 483 mgI/ml): 32 mPas

Q: Which “Viscosity at 400 mgI/ml (CALCULATED)” value does the source give for `CC(O)C(=O)Nc1c(I)c(CO)c(I)c(C(=O)NCC(O)CO)c1I` (centres unmarked) [Example 27, 5-(2-Hydroxypropionylamino)-3-hydroxymethyl-N-(2,3-dihydroxypropyl)-2,4,6-triiodobenzamide] here?
A: 12.5 mPas

Q: What about the “Viscosity 20° C.” value (concentration 412 mgI/ml) of the same molecule?
A: 14 mPas

Q: And the Viscosity (iodine concentration 412 mgI/mL)?
A: 14 mPas

Q: Which “Viscosity at 400 mgI/ml (CALCULATED)” value does the source give for `CN(CC(O)CO)C(=O)c1c(I)c(CCO)c(I)c(NC(=O)CO)c1I` (centres unmarked) [Example 44, 5-Hydroxyacetamido-3-hydroxyethyl-N-methyl-N-(2,3-dihydroxy-propyl)-2,4,6-triiodobenzamide] here?
A: 10.8 mPas

Q: And the “Viscosity 20° C.” value (concentration 481 mgI/ml)?
A: 24 mPas

Q: With `O=C(Nc1c(I)c(CC(O)CO)c(I)c(NC(=O)C(O)CO)c1I)C(O)CO` (centres unmarked) [Example 64, 3,5-Bis-(2,3-dihydroxypropionylamino)-2,4,6-triiodo-(2,3-dihydroxy-propyl)-benzene] as the molecule, how does the “Viscosity 350 mgI/ml (CALCULATED)” value read?
A: 8.3 mPas

Q: What about the “Viscosity at 400 mgI/ml (CALCULATED)” value of the same molecule?
A: 13.0 mPas

Q: What about the “Viscosity 20° C.” value (concentration 419 mgI/ml) of the same molecule?
A: 16 mPas

Q: What does the source list for `O=C(c1c(I)c(CO)c(I)c(N(CCO)C(=O)CO)c1I)N(CC(O)CO)CC(O)CO` (centres unmarked) [Example 68, 5-[N′-(2-Hydroxyethyl)-hydroxyacetamido]-3-hydroxymethyl-N,N-bis-(2,3-dihydroxypropyl)-2,4,6-tiiodobenzamide]?
A: Viscosity at 400 mgI/ml (CALCULATED): 19.1 mPas; Viscosity 20° C. (concentration 450 mgI/ml): 31 mPas

Q: What does the source list for `O=C(Nc1c(I)c(CO)c(I)c(N(CC(O)CO)C(=O)C(O)CO)c1I)C(O)CO` (centres unmarked) [Example 15, N,N′-Bis(2,3-dihydroxypropionyl)-N-(2,3-dihydroxypropyl)-3,5-diamino-2,4,6-triiodobenzylalcohol]?
A: Viscosity at 400 mgI/ml (CALCULATED): 17.8 mPas and 14.9 mPas; Viscosity 20° C. (concentration 291 mgI/ml): 5.4 mPas; Viscosity 20° C. (concentration 384 mgI/ml): 15 mPas; Viscosity 20° C. (concentration 394 mgI/ml): 14 mPas; Viscosity (iodine concentration 348 mgI/mL): 7.8 mPas; Viscosity [1]: 14 mPas; Viscosity (iodine concentration 446 mgI/mL): 22 mPas; Viscosity (iodine concentration 537 mgI/mL): 75 mPas

Q: Which “Viscosity at 400 mgI/ml (CALCULATED)” value does the source give for `CC(CO)(CO)C(=O)Nc1c(I)c(CO)c(I)c(C(=O)NCC(O)CO)c1I` (centres unmarked) [Example 32, 5-(3-Hydroxy-2-methyl-2-hydroxymethyl-propionylamino)-3-hydroxymethyl-N-(2,3-dihydroxypropyl)-2,4,6-triiodobenzamide] here?
A: 17.4 mPas

Q: What about the “Viscosity 20° C.” value (concentration 403 mgI/ml) of the same molecule?
A: 18 mPas

Q: What about the Viscosity (iodine concentration 403 mgI/mL) of the same molecule?
A: 18 mPas

Q: With `O=C(CO)N(CC(O)CO)c1c(I)c(CC(O)CO)c(I)c(N(CC(O)CO)C(=O)CO)c1I` (centres unmarked) [Example 75, 3,5-Bis-[N,N′-(2,3-dihydroxypropyl)-hydroxyacetamido]-2,4,6-triiodo-(2,3-dihydroxypropyl)benzene] as the molecule, how does the “Viscosity 350 mgI/ml (CALCULATED)” value read?
A: 14.6 mPas

Q: And the “Viscosity at 400 mgI/ml (CALCULATED)” value?
A: 28.4 mPas

Q: What about the “Viscosity 20° C.” value (concentration 359 mgI/ml) of the same molecule?
A: 16 mPas
